# Laboratory results as given in paper PMC9535023, “Inhibition of phospholipase D1 induces immunogenic cell death and potentiates cancer immunotherapy in colorectal cancer” (Experimental & Molecular Medicine, 2022).
# Columns and labels:
# FHC cells = experiment: Cell cycle analysis (BrdU/7-AAD flow cytometry), FHC; format: cell-based; conditions: FHC normal fetal colonic mucosa cells
# Description: For cell cycle analysis, the cells were treated with Α3373 or 5-FU. The cells were labeled with 10 μΜ bromodeoxyuridine (BrdU) for 2 h. Subsequently, the cells were stained with 7-aminoactinomycin D (7-AAD, Invitrogen) and a fluorescein isothiocyanate (FITC)-conjugated anti-BrdU antibody (Invitrogen). Apoptotic cells were detected using an Annexin V-FITC Apoptosis Detection Kit (BD Biosciences). The cells were analyzed using BD FACSAria III (BD Biosciences), and data analysis was performed using FlowJo v10.0 (BD Biosciences).
# HCT 116 cells = experiment: Immunoblotting of β-catenin and its target genes; format: cell-based; conditions: time- and dose-dependent, 1% serum
# Description: As previously described, lysates from cells or colorectal cancer (CRC) tissues were analyzed by immunoprecipitation, and/or Western blotting was performed as described previously. The antibodies used are listed in Supplementary Table 5. A polyclonal anti-PLD antibody that recognizes both PLD1 and PLD2 was generated, as previously described. The use of human CRC tissue samples was approved by the Institutional Review Board of Pusan National University, Korea (PNU IRB/2011-6).
# DLD1 cells = experiment: In vitro phagocytosis assay, DLD1 cells with THP1 macrophages; format: cell-based; conditions: CFSE-labeled CRC cells cocultured with PMA-activated THP1 macrophages, vs vehicle
# PLD1 = target: T1, PLD1 (Mus musculus, UniProt Q9Z280); experiment: PLD1 activity in Pld2−/− MEFs; format: cell-based
# T1 construct: endogenous in cells; host or cells: immortalized Pld2-/- mouse embryonic fibroblasts
# T1 sequence (Q9Z280 1-1074): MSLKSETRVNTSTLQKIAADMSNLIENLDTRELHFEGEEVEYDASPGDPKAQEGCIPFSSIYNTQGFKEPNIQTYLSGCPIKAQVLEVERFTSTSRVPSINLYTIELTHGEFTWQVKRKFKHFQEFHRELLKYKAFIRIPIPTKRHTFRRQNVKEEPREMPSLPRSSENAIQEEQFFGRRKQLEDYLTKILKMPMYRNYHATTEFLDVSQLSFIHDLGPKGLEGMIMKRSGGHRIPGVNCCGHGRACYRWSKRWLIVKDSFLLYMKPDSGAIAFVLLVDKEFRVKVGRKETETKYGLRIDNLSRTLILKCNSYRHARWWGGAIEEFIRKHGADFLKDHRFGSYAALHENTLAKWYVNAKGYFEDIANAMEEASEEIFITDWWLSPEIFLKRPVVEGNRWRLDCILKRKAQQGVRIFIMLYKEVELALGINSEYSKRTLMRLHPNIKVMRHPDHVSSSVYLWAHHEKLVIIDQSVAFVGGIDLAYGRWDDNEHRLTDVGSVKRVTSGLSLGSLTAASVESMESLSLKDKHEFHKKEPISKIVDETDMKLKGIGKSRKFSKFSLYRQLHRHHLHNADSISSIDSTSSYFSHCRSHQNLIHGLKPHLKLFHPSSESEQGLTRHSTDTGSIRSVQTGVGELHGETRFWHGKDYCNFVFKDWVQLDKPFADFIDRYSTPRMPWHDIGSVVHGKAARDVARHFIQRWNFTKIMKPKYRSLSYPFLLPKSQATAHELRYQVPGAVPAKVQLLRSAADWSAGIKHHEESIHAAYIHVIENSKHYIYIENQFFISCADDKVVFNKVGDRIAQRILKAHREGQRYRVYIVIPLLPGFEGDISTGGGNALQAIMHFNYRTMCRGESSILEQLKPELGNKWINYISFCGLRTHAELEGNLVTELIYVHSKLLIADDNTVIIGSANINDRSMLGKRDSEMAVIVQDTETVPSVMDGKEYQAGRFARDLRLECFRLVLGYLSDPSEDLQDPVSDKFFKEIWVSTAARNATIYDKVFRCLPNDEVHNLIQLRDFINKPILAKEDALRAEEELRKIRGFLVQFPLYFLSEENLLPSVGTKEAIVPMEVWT
# Description: (§1) Cells were labeled with [H^3] myristic acid, and PLD activity was assessed by measuring the formation of [H^3] phosphatidylbutanol, which is the product of PLD-mediated transphosphatidylation, in the presence of 1-butanol, as previously described.
# (§2) We further investigated the effect of A3373 on the enzymatic inhibition of PLD1 and PLD2 in Pld^+/+, Pld1^−/−, and Pld2^−/− MEFs. […] Kinase profiling was used to evaluate the general selectivity of the lead compounds. […] To further investigate whether inhibition of PLD1 by A3373 occurs by binding to PLD1, we first modified A3373 by adding biotinylation instead of the F present in its structure and measured PLD activity.
# hERG channel = hERG channel (Homo sapiens, UniProt Q12809); experiment: hERG ligand-binding assay; conditions: HEK293 cells transfected with hERG
# Description: (§3) Both hERG assays were conducted as described previously.
# [1] = system: AOM/DSS-induced mouse colon cancer; experiment: AOM/DSS-induced colitis-associated CRC model; format: in vivo; conditions: AOM/DSS mice, 10 mg/kg
# Description: Supplementary materials and methods […]
# The AOM/DSS colorect al cancer model was est ablished using 6 -weeks-old C57BL/6 male mice (Koat ech). Mice were given a single intraperitoneal (IP) injection of the mutagen AOM (10 mg/kg), aft er whi ch t hey were given three periods drinking water contai ning 2.5% DSS for 5 days, followed by 15 days of normal water. AOM/DSS-induced mice were given either vehicle (PBS containing 8% DMSO and 1% Tween 80) or 10 mg/kg A3373 compound every day by oral administration for 45 days. […]
# hERG K^+ channel = target: T2, hERG K^+ channel (Homo sapiens, UniProt Q12809); experiment: hERG patch-clamp assay in HEK293 cells transfected with hERG; format: cell-based
# T2 construct: expressed in transfected cells; host or cells: HEK293
# Description: as §3
# CRC cells = experiment: TCF transactivation in CRC cells with an active Wnt pathway; format: cell-based
# PLD2 = target: T3, PLD2 (Mus musculus, UniProt P97813); experiment: PLD2 activity in Pld1−/− MEFs; format: cell-based
# T3 construct: endogenous in cells; host or cells: immortalized Pld1-/- mouse embryonic fibroblasts
# Description: as §1, §2
# T3 sequence (P97813 whole entry): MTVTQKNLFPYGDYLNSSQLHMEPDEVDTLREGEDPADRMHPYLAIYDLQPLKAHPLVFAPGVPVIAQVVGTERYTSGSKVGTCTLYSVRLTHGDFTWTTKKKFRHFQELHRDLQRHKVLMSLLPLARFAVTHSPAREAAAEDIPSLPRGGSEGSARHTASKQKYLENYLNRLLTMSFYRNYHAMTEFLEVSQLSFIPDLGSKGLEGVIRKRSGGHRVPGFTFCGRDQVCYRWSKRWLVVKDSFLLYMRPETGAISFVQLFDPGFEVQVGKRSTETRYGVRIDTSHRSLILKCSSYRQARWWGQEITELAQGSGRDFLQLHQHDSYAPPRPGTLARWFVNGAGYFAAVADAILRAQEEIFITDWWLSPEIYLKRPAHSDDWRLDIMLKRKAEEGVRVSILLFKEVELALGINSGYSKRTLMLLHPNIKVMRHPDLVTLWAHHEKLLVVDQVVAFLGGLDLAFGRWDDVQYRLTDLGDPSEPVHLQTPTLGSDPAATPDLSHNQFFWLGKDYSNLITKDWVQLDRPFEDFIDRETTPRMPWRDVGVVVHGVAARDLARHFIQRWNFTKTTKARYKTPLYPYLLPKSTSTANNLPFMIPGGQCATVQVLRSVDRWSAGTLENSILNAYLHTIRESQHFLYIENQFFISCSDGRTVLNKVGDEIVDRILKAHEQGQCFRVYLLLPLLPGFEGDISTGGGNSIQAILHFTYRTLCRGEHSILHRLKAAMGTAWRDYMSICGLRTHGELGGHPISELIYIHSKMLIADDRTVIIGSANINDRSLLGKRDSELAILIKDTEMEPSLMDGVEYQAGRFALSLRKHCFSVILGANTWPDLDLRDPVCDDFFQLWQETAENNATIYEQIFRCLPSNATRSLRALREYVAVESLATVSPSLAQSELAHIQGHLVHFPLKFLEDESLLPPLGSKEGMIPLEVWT
# T2 sequence (Q12809 whole entry): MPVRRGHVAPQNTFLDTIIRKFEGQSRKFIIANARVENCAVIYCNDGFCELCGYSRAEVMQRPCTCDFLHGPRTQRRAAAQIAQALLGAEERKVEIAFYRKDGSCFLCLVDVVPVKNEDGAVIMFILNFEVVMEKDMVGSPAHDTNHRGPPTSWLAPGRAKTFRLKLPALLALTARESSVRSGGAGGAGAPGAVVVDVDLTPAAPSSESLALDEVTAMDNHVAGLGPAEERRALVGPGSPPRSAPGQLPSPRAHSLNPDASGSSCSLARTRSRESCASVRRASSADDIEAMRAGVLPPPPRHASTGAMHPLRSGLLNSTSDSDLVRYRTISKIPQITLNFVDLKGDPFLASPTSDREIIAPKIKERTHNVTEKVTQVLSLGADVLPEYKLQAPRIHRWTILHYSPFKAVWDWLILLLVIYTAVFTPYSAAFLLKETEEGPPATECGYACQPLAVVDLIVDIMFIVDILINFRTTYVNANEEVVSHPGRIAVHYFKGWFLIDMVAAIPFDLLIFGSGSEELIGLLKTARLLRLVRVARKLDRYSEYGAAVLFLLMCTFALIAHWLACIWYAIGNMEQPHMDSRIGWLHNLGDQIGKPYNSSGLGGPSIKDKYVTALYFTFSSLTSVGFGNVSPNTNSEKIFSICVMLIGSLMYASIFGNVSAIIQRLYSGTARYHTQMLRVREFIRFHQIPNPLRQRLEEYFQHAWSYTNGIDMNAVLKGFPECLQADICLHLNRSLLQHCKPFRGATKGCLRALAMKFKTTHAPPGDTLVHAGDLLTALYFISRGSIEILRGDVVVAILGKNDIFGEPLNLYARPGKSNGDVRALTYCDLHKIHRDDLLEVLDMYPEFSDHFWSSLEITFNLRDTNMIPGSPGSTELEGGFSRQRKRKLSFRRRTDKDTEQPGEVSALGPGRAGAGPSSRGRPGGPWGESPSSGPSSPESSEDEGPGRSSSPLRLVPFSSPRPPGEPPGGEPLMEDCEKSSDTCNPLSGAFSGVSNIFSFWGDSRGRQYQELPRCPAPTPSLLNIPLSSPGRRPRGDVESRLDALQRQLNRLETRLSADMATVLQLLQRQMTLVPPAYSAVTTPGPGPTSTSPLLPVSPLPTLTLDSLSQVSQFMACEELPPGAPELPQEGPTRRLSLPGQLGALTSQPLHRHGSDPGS
# Sequence of hERG channel (Q12809 whole entry): as above
smiles,measurement,setting,value
O=C(Nc1cc(C(F)(F)F)cc(C(F)(F)F)c1)c1cc2cc(F)ccc2[nH]1 [Compound A3373],"cell cycle / S phase in FHC cells, in words",FHC cells,had no effect on FHC cells
same,"protein levels of β-catenin and its target genes (PLD1, CD133, CD44, c-Myc, cyclin D1)",HCT 116 cells,greatly reduced the protein levels of β-catenin and its target genes
same,"population of CD11b+CFSE+ macrophages, in words",DLD1 cells,significantly increased the population of CD11b^+CFSE^+ macrophages
same,"PLD1 activity, in words","PLD1; 2 μM, Pld−/− MEFs",suppressed
same,IC50,PLD1; Pld2−/− MEFs,0.325 µM
same,inhibition at 10 µM,hERG channel,3.4%
same,CD8 expression (IHC),[1],increased the expression level of CD8
same,"active caspase-3, Ki67 and CD31 in tumor tissues (IHC)",[1],increased the level of active caspase-3 and decreased the levels of Ki67 and CD31
same,do not eat-me and eat-me signals in tumor tissues (IHC),[1],decreased the expression of “do not eat-me” signals but increased that of “eat-me” signals
same,"immune checkpoints (PD1, B7H4) and Foxp3 (IHC)",[1],reduced the expression of immune checkpoints (PD1 and B7H4) and Foxp3
same,mortality,[1],significantly lower
same,number of intestinal polyps,[1],significantly lower
same,tumor formation,[1],attenuated the tumor formation
same,β-catenin and downstream target proteins (IHC),[1],suppressed the levels of β-catenin and its downstream target proteins
same,IC50,hERG K^+ channel,> 50 µM
same,TCF transactivation in CRC cells,CRC cells,significantly suppressed TCF transactivation
same,"PLD2 activity, in words","PLD2; 2 μM, Pld−/− MEFs",not PLD2 activity
same,IC50,PLD2; Pld1−/− MEFs,15.1 µM
